Active and inactive are the calls of the source.
Key:
[1] = A549 cell cytotoxicity, dose response, cytotoxicity control, plate reader, cherry-pick, antagonist series (AID 743412); type: functional, cell-based
[2] = blockers of bursicon-stimulated LGR2 cAMP reporter – cell-based, HEK293, CRE-luciferase reporter, cherry pick, set 2, dose response (AID 743343); type: functional;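 further: transfected cells were stimulated with diluted bursicon conditioned medium after compound addition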
[3] = blockade of melanocortin 4 receptor signaling – cell-based, plate reader, cherry pick, counter-screen for LGR2 antagonist project, dose response (AID 743444); type: functional;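 further: transfected HEK 293 cells stimulated with alpha-MSH peptide; potency of inhibitors of the alpha-MSH evoked signal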
[4] = T. cruzi growth inhibition in host cells, dose response, cell-based, plate reader, dry powder, set 2 (AID 652275); type: functional
cells [5] = type: functional, cell-based
cells [6] = type: functional, cell-based; remark: listed apart in the source
HeLa = assay: viability loss in HeLa cells – cell-based, ATP luminescence, cherry-pick samples, cytotoxicity control, dose response (AID 687004); type: functional; conditions: Homo sapiens
[7] = reduction of Shn3 3'UTR-driven luciferase in osteoblasts – cell-based, Clone20 osteoblasts, firefly luciferase, cherry-picked, dose response (AID 624132); type: functional;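 further: firefly luciferase luminescence from reporter carrying the Shn3 3'UTR in osteoblasts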
[8] = loss of viability in HepG2 cells – cell-based, CellTiter-Glo, cherry-picked, cytotoxicity control for Shn3 inhibitor project, dose response (AID 624134); type: functional
[9] = viability of PTEN-deleted HCT116 cells – cell-based, HCT116 PTEN knockout, dose response (AID 1047); type: functional;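 further: HCT116 colon tumor cells with PTEN knocked out; cells exposed to compound for 60 hours before readout; potency for loss of cell viability measured by luminescence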
[10] = non-specific 3'UTR reporter inhibition in Clone20-Shn3RL – cell-based, Renilla luciferase, cherry-picked, counter-screen for Shn3 inhibitor project, dose response (AID 624133); type: functional
[11] = viability of HCT116 lacking mutant beta-catenin – cell-based, human colon tumor, dose response (AID 1045); type: functional;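 further: HCT116 colon tumor cells with beta catenin knocked out; cells exposed to compound for 60 hours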
[12] = viability loss in HepG2 hepatoma cells – cell-based, ATP luminescence, cherry-pick, activator set 2, cytotoxicity control, dose response (AID 1053143); type: functional
Paired box protein Pax-8 = Paired box protein Pax-8 (Homo sapiens, UniProt Q06710); assay: PAX8 transcriptional activity inhibition in RMG-I – RMG-I cells, luciferase, cherry-pick, dose response (AID 687027); type: functional, cell-based;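 further: luciferase reporter driven by Pax8 target thyroperoxidase promoter measured by SteadyGlo luminescence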
[13] = potency of ADAM10 substrate cleavage blockers – biochemical, QFRET, dose response (AID 743254);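 further: ADAM10 enzyme with the DM2 quenched FRET peptide as substrate; EDANS fluorescence gain as the protease cuts the substrate; inhibitor potency against ADAM10 proteolytic activity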
[14] = biological target: Disintegrin and metalloproteinase domain-containing protein 17 (Homo sapiens, UniProt P78536); assay: inhibition of ADAM17 substrate cleavage – biochemical, quenched FRET substrate, counter-screen for ADAM10 exosite inhibitor project, dose response (AID 743253)
[15] = biological target: T1, Oxysterols receptor LXR-beta (Homo sapiens, UniProt P55055); type: functional, cell-based;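 further: agonist activity at LXR measured by a cell-based luminescence readout across a dose range, run as a counterscreen for daf-12 agonists; HEK293 cells with Gal4-LXR fusion and GAL4-driven luciferase reporter; potency for activation of Gal4-LXR reporter so compounds are agonists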
T1 sequence (P55055 whole entry): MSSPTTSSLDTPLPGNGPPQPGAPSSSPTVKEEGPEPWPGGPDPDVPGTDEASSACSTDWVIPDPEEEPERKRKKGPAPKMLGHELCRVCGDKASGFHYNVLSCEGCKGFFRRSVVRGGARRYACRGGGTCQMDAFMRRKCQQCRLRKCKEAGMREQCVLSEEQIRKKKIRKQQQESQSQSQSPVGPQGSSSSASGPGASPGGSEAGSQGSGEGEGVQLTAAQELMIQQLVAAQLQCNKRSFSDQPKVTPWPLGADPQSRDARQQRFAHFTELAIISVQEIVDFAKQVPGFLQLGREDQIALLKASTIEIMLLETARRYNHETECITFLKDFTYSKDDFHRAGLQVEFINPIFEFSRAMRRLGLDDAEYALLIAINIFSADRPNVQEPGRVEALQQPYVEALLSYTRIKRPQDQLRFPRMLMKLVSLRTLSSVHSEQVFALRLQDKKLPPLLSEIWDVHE

[16] = toxicity toward HepG2 liver cells – cell-based, plate reader, cherry-pick, antagonist series, cytotoxicity control, dose response (AID 743416); type: functional
BJ [17] = assay: BJ-TERT-LT-ST fibroblast viability loss – cell-based, RAS-independent, luminescence, dose response (AID 1935); type: functional; conditions: Homo sapiens;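 further: BJ fibroblasts immortalized with TERT plus LT and ST oncogenes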
Streptococcus = assay: GAS UMAA2166 growth inhibition – luminescence, BacTiterGlo, counter-screen for streptokinase expression inhibitor project, dose response (AID 1915); type: functional, organism-based;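 further: potency for reduction of bacterial viability or growth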
[18] = alpha-synuclein stem-loop luciferase translation blockers – H4 neuroglioma cells, luminescence, confirmation (AID 1988); type: functional, cell-based
BJ [19] = assay: cells; type: functional, cell-based; conditions: Homo sapiens
INS1 = assay: INS-1E survival protection against cytokine death – cell-based, luminescence, retest, dose response (AID 449756); type: functional; conditions: Rattus norvegicus;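 further: cell death triggered by IL-1 beta plus TNF-alpha plus IFN-gamma mixture; protective hits raise ATP signal compared with cytokine alone wells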
[20] = tested on: Streptococcus sp. 'group A'; assay: Streptococcus pyogenes SK(-)GAS viability under kanamycin – luminescence, BacTiterGlo, confirmation, counter-screen for streptokinase expression inhibitor project, dose response (AID 1900); type: functional, organism-based
[21] = DRD fibroblast viability loss – cell-based, non-viral oncogenic, luminescence, dose response (AID 1934); type: functional; conditions: Homo sapiens
[22] = Luminescence Cell-Based Dose Response HTS to Identify Inhibitors of 5'UTR Stem-Loop Driven Prion Protein mRNA Translation in H4 Neuroglioblastoma Cells. [Related pubchem assays: 1827 (Project Summary), 1813 (Primary HTS)]; type: functional
[23] = biological target: T2, Replicative DNA helicase DnaB (Mycobacterium tuberculosis, UniProt P9WMR3); assay: DnaB intein splicing inhibitors, dose response, biochemical, cell-free fluorescence (AID 449749); type: functional
T2 sequence (P9WMR3 whole entry): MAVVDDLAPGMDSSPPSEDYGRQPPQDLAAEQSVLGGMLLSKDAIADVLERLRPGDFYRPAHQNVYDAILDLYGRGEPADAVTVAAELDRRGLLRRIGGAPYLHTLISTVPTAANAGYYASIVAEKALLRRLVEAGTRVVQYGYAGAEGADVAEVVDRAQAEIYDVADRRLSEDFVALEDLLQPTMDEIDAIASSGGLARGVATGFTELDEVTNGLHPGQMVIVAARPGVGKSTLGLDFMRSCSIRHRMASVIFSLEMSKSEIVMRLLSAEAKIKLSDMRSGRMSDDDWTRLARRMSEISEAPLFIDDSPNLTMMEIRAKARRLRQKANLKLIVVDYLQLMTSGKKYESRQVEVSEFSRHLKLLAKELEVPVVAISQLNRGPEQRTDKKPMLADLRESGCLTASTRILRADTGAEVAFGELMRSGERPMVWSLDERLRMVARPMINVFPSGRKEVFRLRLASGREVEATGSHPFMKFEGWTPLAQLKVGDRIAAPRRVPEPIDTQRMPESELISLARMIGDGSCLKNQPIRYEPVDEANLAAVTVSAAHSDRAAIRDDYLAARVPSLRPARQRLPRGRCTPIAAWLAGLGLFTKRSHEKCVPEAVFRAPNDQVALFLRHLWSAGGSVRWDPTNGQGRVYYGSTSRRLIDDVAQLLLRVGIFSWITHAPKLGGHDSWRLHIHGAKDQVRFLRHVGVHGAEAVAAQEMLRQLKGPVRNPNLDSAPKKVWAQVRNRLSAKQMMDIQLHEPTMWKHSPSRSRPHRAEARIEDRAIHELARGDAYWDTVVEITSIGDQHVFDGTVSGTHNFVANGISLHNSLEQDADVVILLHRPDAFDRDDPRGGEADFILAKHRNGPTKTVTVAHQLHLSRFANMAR

[24] = biological target: Fructose-bisphosphate aldolase (Mycobacterium tuberculosis, UniProt P9WQA3); assay: Fluorescence-based biochemical high throughput dose response assay for inhibitors of the fructose-bisphosphate aldolase (FBA) of M. tuberculosis.; type: functional
BJ [25] = assay: BJ-TERT fibroblast viability loss – cell-based, RAS-independent, luminescence, dose response (AID 1933); type: functional; conditions: Homo sapiens
[26] = luciferase reporter signal suppression in cells – H4 neuroglioma cells, luminescence, dose response (AID 1990); type: functional, cell-based
Streptokinase A = biological target: T3, Streptokinase A (Streptococcus pyogenes serotype M1, UniProt P10520); assay: viability-normalized secreted streptokinase activity reduction – plasminogen activation absorbance, OD405, dose response (AID 1914); type: functional, Streptococcus pyogenes M1 GAS;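 further: secreted streptokinase activity via plasminogen activation per viability signal from cell pellet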
T3 sequence (P10520 whole entry): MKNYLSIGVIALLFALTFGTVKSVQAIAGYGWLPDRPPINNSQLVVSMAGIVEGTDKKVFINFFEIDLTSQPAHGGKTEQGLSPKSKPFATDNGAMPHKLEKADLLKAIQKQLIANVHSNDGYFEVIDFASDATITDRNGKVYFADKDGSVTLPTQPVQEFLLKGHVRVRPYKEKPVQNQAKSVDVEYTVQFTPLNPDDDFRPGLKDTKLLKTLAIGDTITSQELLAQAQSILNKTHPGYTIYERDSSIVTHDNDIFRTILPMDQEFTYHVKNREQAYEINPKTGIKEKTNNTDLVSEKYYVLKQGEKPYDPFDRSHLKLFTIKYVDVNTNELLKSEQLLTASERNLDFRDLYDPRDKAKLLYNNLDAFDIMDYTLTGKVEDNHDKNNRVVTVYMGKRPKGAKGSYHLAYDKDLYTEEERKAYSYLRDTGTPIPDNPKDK

Protein RecA = biological target: T4, Protein RecA (Mycobacterium tuberculosis, UniProt P9WHJ3); assay: Fluorescence Cell-Free Homogeneous Dose Retest to Identify Inhibitors of RecA-Intein Splicing Activity. [Related pubchem assays (depositor defined):AID2097, AID2223, AID489010, AID492950]; type: functional
T4 sequence (P9WHJ3 whole entry): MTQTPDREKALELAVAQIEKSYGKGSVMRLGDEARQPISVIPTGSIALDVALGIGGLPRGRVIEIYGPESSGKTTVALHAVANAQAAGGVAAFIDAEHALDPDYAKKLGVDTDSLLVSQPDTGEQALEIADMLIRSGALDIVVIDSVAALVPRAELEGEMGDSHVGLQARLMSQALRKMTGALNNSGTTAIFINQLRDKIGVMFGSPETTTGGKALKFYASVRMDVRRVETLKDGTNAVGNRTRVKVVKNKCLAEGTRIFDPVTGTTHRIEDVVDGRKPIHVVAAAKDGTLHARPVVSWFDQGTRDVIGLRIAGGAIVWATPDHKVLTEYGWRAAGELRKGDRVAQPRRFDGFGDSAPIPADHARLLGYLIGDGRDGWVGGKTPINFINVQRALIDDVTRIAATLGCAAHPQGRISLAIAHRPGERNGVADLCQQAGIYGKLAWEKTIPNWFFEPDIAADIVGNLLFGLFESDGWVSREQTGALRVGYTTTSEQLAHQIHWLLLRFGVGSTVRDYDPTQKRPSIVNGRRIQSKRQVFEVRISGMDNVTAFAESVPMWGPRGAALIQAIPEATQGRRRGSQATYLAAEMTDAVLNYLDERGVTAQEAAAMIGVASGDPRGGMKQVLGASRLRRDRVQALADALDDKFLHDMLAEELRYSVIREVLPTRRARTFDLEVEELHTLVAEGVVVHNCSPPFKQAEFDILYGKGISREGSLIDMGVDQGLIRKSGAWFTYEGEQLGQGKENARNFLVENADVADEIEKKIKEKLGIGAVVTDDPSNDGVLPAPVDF

Sequence of Fructose-bisphosphate aldolase (P9WQA3 whole entry): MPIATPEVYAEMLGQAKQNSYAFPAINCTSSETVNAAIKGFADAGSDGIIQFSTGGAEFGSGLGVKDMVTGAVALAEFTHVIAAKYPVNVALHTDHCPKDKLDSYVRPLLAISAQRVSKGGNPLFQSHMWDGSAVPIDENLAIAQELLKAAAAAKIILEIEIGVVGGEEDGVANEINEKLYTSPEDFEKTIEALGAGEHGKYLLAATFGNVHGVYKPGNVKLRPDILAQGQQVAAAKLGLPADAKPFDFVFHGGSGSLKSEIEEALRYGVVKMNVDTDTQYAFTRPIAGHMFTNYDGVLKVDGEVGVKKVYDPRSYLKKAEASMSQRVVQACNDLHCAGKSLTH
Sequence of Paired box protein Pax-8 (Q06710 whole entry): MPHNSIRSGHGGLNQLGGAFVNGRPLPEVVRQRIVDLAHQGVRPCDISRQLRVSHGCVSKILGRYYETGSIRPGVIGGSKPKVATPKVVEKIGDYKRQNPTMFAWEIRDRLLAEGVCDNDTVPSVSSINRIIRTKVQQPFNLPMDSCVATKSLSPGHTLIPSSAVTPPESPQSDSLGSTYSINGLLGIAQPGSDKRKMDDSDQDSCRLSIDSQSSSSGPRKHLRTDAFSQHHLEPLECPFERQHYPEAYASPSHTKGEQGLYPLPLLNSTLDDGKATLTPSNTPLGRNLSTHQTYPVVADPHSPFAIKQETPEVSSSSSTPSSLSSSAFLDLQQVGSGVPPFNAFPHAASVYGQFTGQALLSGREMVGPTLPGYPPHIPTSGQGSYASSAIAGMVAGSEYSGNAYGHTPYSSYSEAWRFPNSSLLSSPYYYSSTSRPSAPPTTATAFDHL
Sequence of Disintegrin and metalloproteinase domain-containing protein 17 (P78536 whole entry, the tested form may be a part): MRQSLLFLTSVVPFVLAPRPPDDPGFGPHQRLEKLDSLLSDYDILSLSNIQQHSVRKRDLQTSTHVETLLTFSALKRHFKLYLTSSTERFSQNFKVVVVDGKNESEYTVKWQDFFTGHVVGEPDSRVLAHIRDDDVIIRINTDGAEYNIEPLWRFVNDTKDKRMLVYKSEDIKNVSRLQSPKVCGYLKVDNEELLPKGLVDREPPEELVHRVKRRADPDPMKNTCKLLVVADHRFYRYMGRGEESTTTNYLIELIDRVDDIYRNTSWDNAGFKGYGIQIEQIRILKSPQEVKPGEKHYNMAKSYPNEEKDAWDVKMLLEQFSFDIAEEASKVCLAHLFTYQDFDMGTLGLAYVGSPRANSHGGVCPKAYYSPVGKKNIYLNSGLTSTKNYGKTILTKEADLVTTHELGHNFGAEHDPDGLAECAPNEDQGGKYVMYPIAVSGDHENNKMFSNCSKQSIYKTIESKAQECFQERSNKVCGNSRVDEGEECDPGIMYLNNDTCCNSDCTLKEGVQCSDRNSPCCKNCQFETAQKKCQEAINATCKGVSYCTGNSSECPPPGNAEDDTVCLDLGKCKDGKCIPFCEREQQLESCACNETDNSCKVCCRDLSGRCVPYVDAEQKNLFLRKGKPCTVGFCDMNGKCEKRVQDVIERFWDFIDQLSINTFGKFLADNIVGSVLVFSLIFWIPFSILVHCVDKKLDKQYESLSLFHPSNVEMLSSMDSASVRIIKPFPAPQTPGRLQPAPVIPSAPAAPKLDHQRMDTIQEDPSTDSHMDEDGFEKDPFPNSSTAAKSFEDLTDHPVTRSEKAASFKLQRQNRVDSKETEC

Structure (SMILES): O=C(Nc1ccc(NC(=O)c2ccco2)nc1)c1ccco1
- AC50 [1]: > 52 µM (inactive)
- AC50 [2]: 6.67 µM (active)
- AC50 [3]: 8.62 µM (active)

Structure (SMILES): CN(C)C(=O)c1cccc(-c2ccc([C@H]3[C@H](CO)N4CCCCN(Cc5cccnc5)C[C@@H]34)cc2)c1
- AC50 [4]: 0.481 µM (active)

Structure (SMILES): Oc1ccc(/C=N/CCc2ccccc2)cc1
- IC50 (cells [5]): > 29.9 µM (inactive)
- EC50 (cells [6]): > 29.9 µM (inactive)

Structure (SMILES): CC(C)NC(=O)Nc1ccc2c(c1)C(=O)N([C@@H](C)CO)C[C@H](C)[C@@H](CN(C)Cc1ccc3c(c1)OCO3)OCCCC[C@@H](C)O2
- AC50 (HeLa): 19.5 µM (active)

Structure (SMILES): Cc1cccc(/C=C(\c2nc3ccccc3[nH]2)S(=O)(=O)c2ccccc2)c1
- AC50 [7]: 4.5 µM (active)
- AC50 [8]: 24.5 µM (active)
- EC50 [9]: 2.33 µM (active)
- AC50 [10]: 7.04 µM (active)
- EC50 [11]: 2.37 µM (active)
- AC50 [12]: 11.1 µM (active)
- AC50 (Paired box protein Pax-8): 4.1 µM (active)

Structure (SMILES): CC(=O)c1sc(NC(=O)c2cc(-c3ccccc3)nn2-c2ccccc2)nc1C
- AC50 (HeLa): > 52 µM (inactive)

Structure (SMILES): CC(O)(c1ccc(F)c(F)c1)c1nc(-c2cccc(C(F)(F)F)c2)cs1 (stereo not given)
- IC50 [13]: 7.59 µM (active)
- IC50 [14]: > 69.5 µM (inactive)

Structure (SMILES): Cc1ccc(-c2nc(-c3ccncc3)no2)cc1C
- AC50 [2]: 17.8 µM (active)
- EC50 [15]: > 67.5 µM (inactive)
- AC50 [16]: > 52 µM (inactive)
- AC50 [3]: 25.8 µM (active)

Structure (SMILES): Cc1ccc(-c2cc(-c3ccc(C)cc3)[n+](-c3ccc(C(=O)[O-])cc3)c(-c3ccc(C)cc3)c2)cc1
- EC50 (BJ [17]): 14.9 µM (inconclusive)
- EC50 (Streptococcus): > 150 µM (not active)
- EC50 [18]: > 120 µM (not active)
- EC50 (BJ [19]): 13.6 µM (active)
- AC50 (INS1): 6.34 µM (active)
- EC50 [20]: 12.6 µM (active)
- EC50 [21]: 8.62 µM (inconclusive)
- EC50 [22]: 63.5 µM (active)
- AC50 [23]: 38.2 µM (active)
- IC50 [24]: 1.86 µM (active)
- EC50 (BJ [25]): 2.76 µM (active)
- EC50 [26]: > 120 µM (not active)
- EC50 (Streptokinase A): > 150 µM (not active)
- EC50 (Protein RecA): 40.5 µM (active)

Reference: ChEMBL document CHEMBL1201862, “PubChem BioAssay data set” (2004)
